Test: in vitro
Conditions: human, hela cells, % viability

Compound | viability at 28.5 h, 10 µM
O=C(C1CCC1)N1CCC(c2nc(C3CCCC3)no2)C1 (stereo not shown) [CBK285434] | 88.1%
CCOc1ccccc1CN1CC2CCCN2C[C@@H]1C (stereo partly shown) [CBK285435] | 94.7%
C[C@H]1CN2C[C@H](O)CC2CN1Cc1ccc(Br)s1 (stereo partly shown) [CBK285439] | 96.1%
C[C@H]1CN2CCCC2CN1Cc1ccc2c(c1)CCO2 (stereo partly shown) [CBK285443] | 104%
Cc1cc(C2CCCCCN2C(=O)c2ccc(F)cc2)on1 (stereo not shown) [CBK285447] | 106%
C[C@H]1CN2CCCC2CN1Cc1cccc(F)c1F (stereo partly shown) [CBK285454] | 111%
O[C@@]1(c2ccccn2)CC[C@H]2CN(Cc3ccc(F)c(F)c3)C[C@H]21 [CBK285456] | 107%
CC(=O)NC(c1ccccn1)C1CCN(Cc2cccc(F)c2)CC1 (stereo not shown) [CBK285461] | 104%
Cc1cc(C[C@@H]2COC[C@H]2NCc2ccccc2C(F)(F)F)on1 [CBK285464] | 100%
C[C@H]1CN2C[C@H](O)CC2CN1Cc1cccn1-c1ccc(F)cc1 (stereo partly shown) [CBK285465] | 97.4%
CCCn1cc(CN2CC3C[C@@H](O)CN3C[C@@H]2C)c2ccccc21 (stereo partly shown) [CBK285466] | 104%
Cc1ccc(C(C)CCN2CC3CCCN3C[C@H]2C)o1 (stereo partly shown) [CBK285467] | 101%
CCn1cc([C@H]2CN(C)C[C@@H]2N(C)C)c2ccccc21 [CBK285468] | 108%
COC(=O)[C@H]1CN(C(=O)C2CC(=O)N(C)C2)C[C@@H]1c1ccccc1F (stereo partly shown) [CBK285470] | 94.7%
O=C(NC1CC1)[C@@H]1C=CCN1S(=O)(=O)c1ccccc1Cl [CBK285479] | 103%
CCCc1ccc(C(=O)N2CCC(C(=O)c3cccnc3)CC2)o1 [CBK285482] | 101%
Cc1ncsc1C(=O)N1CCN(Cc2ccco2)C[C@@H]1C(C)C [CBK285486] | 101%
COc1cccc(CN2CCN(C(=O)N3CCCC3)[C@@H](C)C2)c1 [CBK285491] | 107%
O=C(C1CCCC1)N1C[C@@H]2CCCCN(CC3CC3)[C@@H]2C1 [CBK285493] | 104%
COC(=O)CN1CCCC[C@H]2CN(C(=O)C3CCC3)C[C@H]21 [CBK285496] | 103%
O=C(Cc1ccccc1)N1C[C@@H]2CCCCN(CC3CC3)[C@@H]2C1 [CBK285497] | 111%

Compound | viability at 28.5 h, 10 µM
Cc1cnccc1-c1c[nH]nc1C1CCCN1C(=O)c1ccccc1 (stereo not shown) [CBK285499] | 104%
C=CCN1CCCC[C@H]2CN(S(=O)(=O)c3cccc(F)c3)C[C@H]21 [CBK285500] | 103%
O=S(=O)(c1ccccc1)N1C[C@@H]2CCCCN(CC3CC3)[C@@H]2C1 [CBK285501] | 109%
COc1ccc([C@H]2CN(C(C)=O)[C@@H]3CCN(CC4CC4)C[C@H]23)cc1 [CBK285502] | 98.1%
O=C(c1cccs1)N1C[C@@H]2CCCCN(C3CCOCC3)[C@@H]2C1 [CBK285503] | 107%
O=C(CN1CCCC[C@H]2CN(C(=O)c3cccs3)C[C@H]21)NC1CC1 [CBK285504] | 90.5%
Cc1cc(C)n(CCC(=O)N2C[C@@H]3CCCCN(CC4CC4)[C@@H]3C2)n1 [CBK285505] | 102%
CC(=O)N1C[C@@H]2CCCCN(CC(=O)NC3CC3)[C@@H]2C1 [CBK285508] | 101%
CC(C)N1CCCC[C@H]2CN(C(=O)C3OCCc4ccccc43)C[C@H]21 (stereo partly shown) [CBK285511] | 104%
CS(=O)(=O)N1C[C@@H]2CCCCN(Cc3cccc(F)c3)[C@@H]2C1 [CBK285514] | 103%
CC(=O)NCC(=O)N1C[C@@H]2CCCCN(Cc3cccc(F)c3)[C@@H]2C1 [CBK285515] | 90.1%
Cc1ccc(-c2nnc(C3CCCN(C(=O)C4CC4)C3)o2)s1 (stereo not shown) [CBK285516] | 83.9%
COC(=O)[C@H]1CCc2ccccc2N1C(=O)C1CC1 [CBK285518] | 78.9%
CN(C)C(=O)C1(Cc2ccccc2-c2cccnc2)CCN(Cc2ccccc2)CC1 [CBK285522] | 85.7%
CN1CCCCC[C@@H]2[C@@H]1[C@H](c1ccccc1)CN2C(=O)CN1CCCCCC1=O [CBK285524] | 87.5%
CC(C)NC(=O)[C@H]1CN(C(=O)c2cc[nH]n2)C[C@@H]1c1ccnc(N2CCCC2)n1 [CBK285526] | 89.3%
O=C1NCCCC12CCN(Cc1cnc(N3CCOCC3)nc1)CC2 [CBK285528] | 111%
Cc1cccc([C@H]2CN(C(=O)C3CCCC3)[C@@H]3CCN(C4CCCC4)C[C@H]23)c1 [CBK285529] | 118%
Cc1cccc(CN2CCCC[C@H]3CN(C(=O)c4cccs4)C[C@H]32)c1 [CBK285530] | 85.8%
COc1ccc(OC)c(C(O)CN2CCc3sccc3C2c2cccs2)c1 (stereo not shown) [CBK285532] | 109%
O=C(NCc1cccs1)C1(Cc2ccc(-c3ccc(F)c(F)c3)cc2)CCOCC1 [CBK285533] | 99.5%

Compound | viability at 28.5 h, 10 µM
O=C(NCC1CCCO1)C1(Cc2ccc(-c3ccc(F)c(F)c3)cc2)CCOCC1 (stereo not shown) [CBK285534] | 97.2%
CC(C)NC(=O)c1sc2ccccc2c1C1CN(Cc2c[nH]nc2C(C)(C)C)CCO1 (stereo not shown) [CBK285535] | 93.5%
COc1ccc(F)cc1-c1ccc(CC2(C(=O)NC3CCCCC3)CCOCC2)cc1 [CBK285538] | 86.6%
COc1ccc(F)cc1-c1cccc(CC2(C(=O)NCc3cccs3)CCOCC2)c1 [CBK285543] | 90.6%
Cc1oc(C(=O)Nc2cccc(CCc3ccncc3)c2)cc1CN1CCOCC1 [CBK285547] | 92.8%
CC(Oc1ccc2c(c1)OCO2)C(=O)N1CCc2sccc2C1c1ccccc1 (stereo not shown) [CBK285549] | 91.9%
O=C(c1cccc(Cn2cccn2)c1)N1CCc2sccc2C1c1ccccc1 (stereo not shown) [CBK285552] | 85.8%
O=C(NCCc1ccc(Cl)cc1)C1CCN(C(=O)c2ccc3nsnc3c2)C1 (stereo not shown) [CBK285553] | 95.2%
Cc1ccc(C(=O)Nc2cccc(CCc3ccncc3)c2)c(=O)n1C [CBK285556] | 84.4%
Cc1cnc2c(C(=O)Nc3cccc(CCc4ccncc4)c3)cnn2c1 [CBK285558] | 106%
COc1ccc(NC(=O)c2cn(C)nc2CC2CCN(CCc3ccccc3)CC2)cc1 [CBK285559] | 90.9%
O=C(CC1NC(=O)N(C2CCCCC2)C1=O)Nc1cccc(CCc2ccncc2)c1 (stereo not shown) [CBK285563] | 93.1%
O=C(NCC1CCCCC1)C1(Cc2ccc(-c3ccncc3)cc2)CCOCC1 [CBK285564] | 121%
O=C(Nc1ccc(-c2cccc(F)c2)cc1)c1ccccc1Cn1cncn1 [CBK285565] | 95.6%
Cc1nnnn1-c1ccc(CC(=O)N2CCc3sccc3C2c2ccccc2)cc1 (stereo not shown) [CBK285567] | 103%
Nc1ncc(-c2ccc(Cl)cc2)c(C2CCCN(C(=O)C3CCCC3)C2)n1 (stereo not shown) [CBK285571] | 95.1%
Nc1ncc(-c2ccc(Cl)cc2)c(C2CCCN(C(=O)Cc3c[nH]c4ccccc34)C2)n1 (stereo not shown) [CBK285574] | 113%
CC(=O)N1CCCCC[C@@H]2[C@@H]1C[C@@H](Cc1ccccc1)N2C(=O)c1ccccc1 [CBK285576] | 115%
COc1ccc([C@@H]2CN(C(=O)c3ccccc3)[C@H]3CCN(Cc4ccc(F)cc4)C[C@@H]23)cc1 [CBK285581] | 109%

Reference: PMC12040169 (PLOS Biology, 2025)
